Test results published in ChEMBL document CHEMBL4831485, “Design, synthesis and biological evaluation of exiguamine A analogues as IDO1 inhibitors” (Eur J Med Chem, 2021).
One block for each compound: values may come before it.

Assays:
[1] = biological target: Indoleamine 2,3-dioxygenase 1 (Homo sapiens, UniProt P14902); experiment: Inhibition of human N-terminal His-tagged IDO1 expressed in Escherichia coli assessed as formation of N'-formyl-kynurenine using D-tryptophan as a substrate by methylene blue based assay
[2] = biological target: Tryptophan 2,3-dioxygenase (Homo sapiens) (UniProt P48775); experiment: Inhibition of human N-terminal His-tagged TDO expressed in Escherichia coli assessed as formation of N'-formyl-kynurenine at 1 uM using D-tryptophan as a substrate by methylene blue based assay relative to control
HepG2 = experiment: Cytotoxicity against human HepG2 cells assessed as reduction in cell viability measured after 72 hrs by MTT assay; type: cell-based; settings: HepG2, 72 h
U-87 MG = experiment: Cytotoxicity against human U87 cells assessed as reduction in cell viability measured after 72 hrs by MTT assay; type: cell-based, U-87MG ATCC
HGC-27 = experiment: Cytotoxicity against human HGC-27 cells assessed as reduction in cell viability measured after 72 hrs by MTT assay; type: cell-based; settings: HGC-27, 72 h
HCT-116 = experiment: Cytotoxicity against human HCT-116 cells assessed as reduction in cell viability measured after 72 hrs by MTT assay; type: cell-based; settings: HCT-116, 72 h
MCF7 = experiment: Cytotoxicity against human MCF7 cells assessed as reduction in cell viability measured after 72 hrs by MTT assay; type: cell-based; settings: MCF7, 72 h

Sequence of Indoleamine 2,3-dioxygenase 1 (P14902 whole entry): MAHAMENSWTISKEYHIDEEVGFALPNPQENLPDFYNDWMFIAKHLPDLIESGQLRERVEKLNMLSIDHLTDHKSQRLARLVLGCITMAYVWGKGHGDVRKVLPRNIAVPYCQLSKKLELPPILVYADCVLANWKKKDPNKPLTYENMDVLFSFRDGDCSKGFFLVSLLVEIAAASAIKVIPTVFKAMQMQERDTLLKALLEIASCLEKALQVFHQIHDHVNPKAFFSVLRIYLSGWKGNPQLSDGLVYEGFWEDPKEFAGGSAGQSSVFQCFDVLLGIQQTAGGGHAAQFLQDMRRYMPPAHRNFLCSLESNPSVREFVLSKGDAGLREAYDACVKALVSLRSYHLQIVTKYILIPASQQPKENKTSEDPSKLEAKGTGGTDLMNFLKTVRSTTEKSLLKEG
Sequence of Tryptophan 2,3-dioxygenase (Homo sapiens) (P48775 whole entry, looked up): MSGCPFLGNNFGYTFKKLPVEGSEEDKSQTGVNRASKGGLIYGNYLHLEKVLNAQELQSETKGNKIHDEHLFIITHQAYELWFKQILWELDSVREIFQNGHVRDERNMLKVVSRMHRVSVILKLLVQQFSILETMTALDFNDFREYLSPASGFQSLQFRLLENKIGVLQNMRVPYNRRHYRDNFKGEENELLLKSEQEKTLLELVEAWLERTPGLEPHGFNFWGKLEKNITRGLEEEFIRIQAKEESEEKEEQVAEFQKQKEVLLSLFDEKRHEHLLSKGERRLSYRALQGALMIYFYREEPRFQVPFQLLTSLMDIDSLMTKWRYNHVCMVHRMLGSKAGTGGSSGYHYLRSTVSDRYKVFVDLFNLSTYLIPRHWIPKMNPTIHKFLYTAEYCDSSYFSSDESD

Structure (SMILES): COc1ccc(C)c2c1CC1(C(=O)N(C)C(=O)N1C)C1=C2C(=O)c2[nH]cc(CCNC(=O)OC(C)(C)C)c2C1=O (stereo not given)
- IC50 [1]: 0.467 µM

Structure (SMILES): COc1ccc(C)c2c1CC1(C(=O)N(C)C(=O)N1C)C1=C2C(=O)c2[nH]cc(CCNC(=O)/C=C/c3ccccc3)c2C1=O (stereo not given)
- IC50 [1]: 0.578 µM

Structure (SMILES): COc1ccc(C)c2c1CC1(C(=O)N(C)C(=O)N1C)C1=C2C(=O)c2[nH]cc(CCNC(=O)c3cc4ccccc4o3)c2C1=O (stereo not given)
- IC50 [1]: 0.631 µM

Structure (SMILES): COc1ccc(C)c2c1CC1(C(=O)N(C)C(=O)N1C)C1=C2C(=O)c2[nH]cc(CCNCc3cc4ccccc4s3)c2C1=O (stereo not given)
- IC50 [1]: 0.621 µM

Structure (SMILES): COc1ccc(C)c2c1CC1(C(=O)N(C)C(=O)N1C)C1=C2C(=O)c2[nH]cc(CCNC(=O)c3ccc(C(C)C)cc3)c2C1=O (stereo not given)
- IC50 [1]: > 42 µM

Structure (SMILES): COc1ccc(C)c2c1CC1(C(=O)N(C)C(=O)N1C)C1=C2C(=O)c2[nH]cc(CCNC(=O)c3cc4ccccc4s3)c2C1=O (stereo not given)
- IC50 [1]: > 42 µM

Structure (SMILES): COc1ccc(C)c2c1CC1(C(=O)N(C)C(=O)N1C)C1=C2C(=O)c2[nH]cc(CCNC(=O)/C=C/c3cccc(C(F)(F)F)c3)c2C1=O (stereo not given)
- IC50 [1]: > 42 µM

Structure (SMILES): COc1ccc(C)c2c1CC1(C(=O)N(C)C(=O)N1C)C1=C2C(=O)c2[nH]cc(CCNC(=O)c3ccc4ccccc4c3)c2C1=O (stereo not given)
- IC50 [1]: > 42 µM

Structure (SMILES): COc1ccc(C)c2c1CC1(C(=O)N(C)C(=O)N1C)C1=C2C(=O)c2[nH]cc(CCNC(=O)Cc3cccc(C(F)(F)F)c3)c2C1=O (stereo not given)
- IC50 [1]: 0.441 µM

Structure (SMILES): NS(=O)(=O)NCCNc1nonc1/C(=N/O)Nc1ccc(F)c(Br)c1 [EPACADOSTAT]
- IC50 (HepG2): > 50 µM
- IC50 (U-87 MG): > 50 µM
- IC50 (HGC-27): > 50 µM
- IC50 (HCT-116): > 50 µM
- IC50 (MCF7): > 50 µM

Structure (SMILES): COc1ccc(C)c2c1CC1(C(=O)N(C)C(=O)N1C)C1=C2C(=O)c2[nH]cc(CCNC(=O)c3cc(OC)c(OC)c(OC)c3)c2C1=O (stereo not given)
- IC50 [1]: > 42 µM

Structure (SMILES): COc1ccc(C)c2c1CC1(C(=O)N(C)C(=O)N1C)C1=C2C(=O)c2[nH]cc(CCNC(=O)c3ccc4ccccc4n3)c2C1=O (stereo not given)
- IC50 [1]: > 42 µM

Structure (SMILES): COc1cc(/C=C/C(=O)NCCc2c[nH]c3c2C(=O)C2=C(C3=O)c3c(C)ccc(OC)c3CC23C(=O)N(C)C(=O)N3C)cc(OC)c1 (stereo not given)
- IC50 [1]: > 42 µM

Structure (SMILES): COc1ccc(C)c2c1CC1(C(=O)N(C)C(=O)N1C)C1=C2C(=O)c2[nH]cc(CCNC(=O)c3cc4ccccc4[nH]3)c2C1=O (stereo not given)
- IC50 [1]: > 42 µM

Structure (SMILES): COc1ccc(C)c2c1CC1(C(=O)N(C)C(=O)N1C)C1=C2C(=O)c2[nH]cc(CCNC(=O)c3ccc(Cl)cc3)c2C1=O (stereo not given)
- IC50 [1]: > 42 µM

Structure (SMILES): COc1ccc(C)c2c1CC1(C(=O)N(C)C(=O)N1C)C1=C2C(=O)c2[nH]cc(CCNC(=O)c3cccc(C(F)(F)F)c3)c2C1=O (stereo not given)
- IC50 [1]: > 42 µM

Structure (SMILES): COc1ccc(C)c2c1CC1(C(=O)N(C)C(=O)N1C)C1=C2C(=O)c2[nH]cc(CCNCc3ccc(-c4ccccc4)cc3)c2C1=O (stereo not given)
- IC50 [1]: 0.954 µM

Structure (SMILES): COc1ccc(C(=O)NCCc2c[nH]c3c2C(=O)C2=C(C3=O)c3c(C)ccc(OC)c3CC23C(=O)N(C)C(=O)N3C)cc1 (stereo not given)
- IC50 [1]: 2.5 µM

Further lines, with some results ahead:

- IC50 [1]: 0.159 µM
Structure (SMILES): COc1ccc(C)c2c1CC1(C(=O)N(C)C(=O)N1C)C1=C2C(=O)c2[nH]cc(CCNCCc3ccccc3)c2C1=O (stereo not given)

- IC50 [1]: 0.252 µM
Structure (SMILES): COC(=O)c1cccc(CNCCc2c[nH]c3c2C(=O)C2=C(C3=O)c3c(C)ccc(OC)c3CC23C(=O)N(C)C(=O)N3C)c1 (stereo not given)

- IC50 [1]: 0.265 µM
Structure (SMILES): COc1ccc(C)c2c1CC1(C(=O)N(C)C(=O)N1C)C1=C2C(=O)c2[nH]cc(CCNCc3ccc(C(C)(C)C)cc3)c2C1=O (stereo not given)

- IC50 [1]: 0.181 µM
Structure (SMILES): COc1ccc(C)c2c1CC1(C(=O)N(C)C(=O)N1C)C1=C2C(=O)c2[nH]cc(CCNCc3cc(OC)c(OC)c(OC)c3)c2C1=O (stereo not given)

- IC50 [1]: 0.0793 µM
- inhibition [2]: 0%
Structure (SMILES): COc1ccc(C)c2c1CC1(C(=O)N(C)C(=O)N1C)C1=C2C(=O)c2[nH]cc(CCNCC(C)(C)C)c2C1=O (stereo not given)
- IC50 (HepG2): > 50 µM
- IC50 (U-87 MG): > 50 µM
- IC50 (HGC-27): > 50 µM
- IC50 (HCT-116): > 50 µM
- IC50 (MCF7): > 50 µM

- IC50 [1]: 0.15 µM
- inhibition [2]: 0%
Structure (SMILES): COc1ccc(C)c2c1CC1(C(=O)N(C)C(=O)N1C)C1=C2C(=O)c2[nH]cc(CCNCc3cccc(Cl)c3)c2C1=O (stereo not given)
- IC50 (HepG2): > 50 µM
- IC50 (U-87 MG): > 50 µM
- IC50 (HGC-27): > 50 µM
- IC50 (HCT-116): > 50 µM
- IC50 (MCF7): > 50 µM

- IC50 [1]: 0.173 µM
Structure (SMILES): COc1ccc(C)c2c1CC1(C(=O)N(C)C(=O)N1C)C1=C2C(=O)c2[nH]cc(CCNCc3ccccc3)c2C1=O (stereo not given)

- IC50 [1]: 0.37 µM
Structure (SMILES): COc1ccc(C)c2c1CC1(C(=O)N(C)C(=O)N1C)C1=C2C(=O)c2[nH]cc(CCNCc3cccs3)c2C1=O (stereo not given)

- IC50 [1]: 0.161 µM
Structure (SMILES): COc1ccc(C)c2c1CC1(C(=O)N(C)C(=O)N1C)C1=C2C(=O)c2[nH]cc(CCNCc3ccc(C(F)(F)F)cc3)c2C1=O (stereo not given)

- IC50 [1]: 0.209 µM
- inhibition [2]: 0%
Structure (SMILES): COc1ccc(C)c2c1CC1(C(=O)N(C)C(=O)N1C)C1=C2C(=O)c2[nH]cc(CCNC(=O)c3ccco3)c2C1=O (stereo not given)
- IC50 (HepG2): 4.18 µM
- IC50 (U-87 MG): 2.59 µM
- IC50 (HGC-27): 3.16 µM
- IC50 (HCT-116): 2.15 µM
- IC50 (MCF7): 6.91 µM

- IC50 [1]: 0.234 µM
Structure (SMILES): COc1ccc(C)c2c1CC1(C(=O)N(C)C(=O)N1C)C1=C2C(=O)c2[nH]cc(CCNCc3ccc(C)c(C)c3)c2C1=O (stereo not given)

- IC50 [1]: 0.25 µM
Structure (SMILES): COc1ccc(C)c2c1CC1(C(=O)N(C)C(=O)N1C)C1=C2C(=O)c2[nH]cc(CCNC(=O)c3ccccc3Br)c2C1=O (stereo not given)

- IC50 [1]: 0.0653 µM
- inhibition [2]: 0%
Structure (SMILES): COc1ccc(C)c2c1CC1(C(=O)N(C)C(=O)N1C)C1=C2C(=O)c2[nH]cc(CCNCc3ccccc3Br)c2C1=O (stereo not given)
- IC50 (HepG2): 1.56 µM
- IC50 (U-87 MG): 1.22 µM
- IC50 (HGC-27): 2.08 µM
- IC50 (HCT-116): 1.35 µM
- IC50 (MCF7): 1.52 µM

- IC50 [1]: 0.213 µM
Structure (SMILES): COc1ccc(C)c2c1CC1(C(=O)N(C)C(=O)N1C)C1=C2C(=O)c2[nH]cc(CCNCc3cc(F)cc(F)c3)c2C1=O (stereo not given)

- IC50 [1]: 0.242 µM
Structure (SMILES): COc1ccc(C)c2c1CC1(C(=O)N(C)C(=O)N1C)C1=C2C(=O)c2[nH]cc(CCNCc3ccccc3C)c2C1=O (stereo not given)

- IC50 [1]: 0.33 µM
Structure (SMILES): COc1ccc(CC(=O)NCCc2c[nH]c3c2C(=O)C2=C(C3=O)c3c(C)ccc(OC)c3CC23C(=O)N(C)C(=O)N3C)cc1 (stereo not given)

- IC50 [1]: 0.221 µM
Structure (SMILES): COc1ccc(C)c2c1CC1(C(=O)N(C)C(=O)N1C)C1=C2C(=O)c2[nH]cc(CCNC(=O)c3cccs3)c2C1=O (stereo not given)

- IC50 [1]: 0.248 µM
Structure (SMILES): COc1ccc(C)c2c1CC1(C(=O)N(C)C(=O)N1C)C1=C2C(=O)c2[nH]cc(CCNCc3cccc(OC)c3OC)c2C1=O (stereo not given)

- IC50 [1]: 0.43 µM
Structure (SMILES): COc1ccc(C)c2c1CC1(C(=O)N(C)C(=O)N1C)C1=C2C(=O)c2[nH]cc(CCNC(=O)c3ccccn3)c2C1=O (stereo not given)

- IC50 [1]: 0.21 µM
- inhibition [2]: 0%
Structure (SMILES): COc1ccc(C)c2c1CC1(C(=O)N(C)C(=O)N1C)C1=C2C(=O)c2[nH]cc(CCNC(=O)c3ccccc3)c2C1=O (stereo not given)
- IC50 (HepG2): 3.53 µM
- IC50 (U-87 MG): 2.74 µM
- IC50 (HGC-27): 4 µM
- IC50 (HCT-116): 1.7 µM
- IC50 (MCF7): 5.35 µM

- IC50 [1]: 0.271 µM
Structure (SMILES): COc1ccc(C)c2c1CC1(C(=O)N(C)C(=O)N1C)C1=C2C(=O)c2[nH]cc(CCNCc3ccc4ccccc4c3)c2C1=O (stereo not given)

- IC50 [1]: 0.101 µM
- inhibition [2]: 0%
Structure (SMILES): COc1ccc(C)c2c1CC1(C(=O)N(C)C(=O)N1C)C1=C2C(=O)c2[nH]cc(CCN(C)C)c2C1=O (stereo not given)
- IC50 (HepG2): > 50 µM
- IC50 (U-87 MG): > 50 µM
- IC50 (HGC-27): > 50 µM
- IC50 (HCT-116): > 50 µM
- IC50 (MCF7): > 50 µM
